From patent US12622910B2, “Inhibitors of Bruton's tyrosine kinase and methods of their use” (Janssen Pharmaceutica NV, priority 2021, dated 2026)

Key:
CYP2A6 = target: T1, CYP2A6 (Homo sapiens, UniProt P11509); assay: CYP inhibition in human liver microsomes; format: in vitro ADME; conditions: probe Coumarin
T1 construct: with specific CYP probe substrates in human liver microsomes; from tissue; host or cells: human liver microsomes
Experimental: (§1) The potential of the compound of Formula (III) to inhibit human CYP450s in vitro was investigated up to test concentrations of 50 μM by incubating the compound of Formula (III) with specific CYP probe substrates in human liver microsomes and measuring probe metabolite formation.

CYP3A4 = target: T2, CYP3A4 (Homo sapiens, UniProt P08684); assay: CYP inhibition in human liver microsomes; format: in vitro ADME
T2 construct: with specific CYP probe substrates in human liver microsomes; from tissue; host or cells: human liver microsomes
T2 sequence (P08684 whole entry): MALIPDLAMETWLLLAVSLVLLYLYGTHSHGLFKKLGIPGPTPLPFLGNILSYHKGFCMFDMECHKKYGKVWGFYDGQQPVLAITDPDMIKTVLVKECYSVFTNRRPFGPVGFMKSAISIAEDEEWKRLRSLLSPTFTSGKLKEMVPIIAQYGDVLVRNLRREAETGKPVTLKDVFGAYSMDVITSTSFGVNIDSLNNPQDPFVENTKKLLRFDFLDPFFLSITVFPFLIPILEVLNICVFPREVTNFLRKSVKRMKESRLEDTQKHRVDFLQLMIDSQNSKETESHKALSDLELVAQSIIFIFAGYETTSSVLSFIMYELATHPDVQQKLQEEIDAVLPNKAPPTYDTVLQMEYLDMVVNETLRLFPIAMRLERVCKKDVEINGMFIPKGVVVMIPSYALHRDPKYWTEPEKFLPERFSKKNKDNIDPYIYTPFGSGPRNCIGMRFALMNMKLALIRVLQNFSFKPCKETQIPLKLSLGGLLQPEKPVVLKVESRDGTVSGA
Experimental: as §1

CYP2C9 = target: T3, CYP2C9 (Homo sapiens, UniProt P11712); assay: CYP inhibition in human liver microsomes; format: in vitro ADME
T3 construct: with specific CYP probe substrates in human liver microsomes; from tissue; host or cells: human liver microsomes
T3 sequence (P11712 whole entry): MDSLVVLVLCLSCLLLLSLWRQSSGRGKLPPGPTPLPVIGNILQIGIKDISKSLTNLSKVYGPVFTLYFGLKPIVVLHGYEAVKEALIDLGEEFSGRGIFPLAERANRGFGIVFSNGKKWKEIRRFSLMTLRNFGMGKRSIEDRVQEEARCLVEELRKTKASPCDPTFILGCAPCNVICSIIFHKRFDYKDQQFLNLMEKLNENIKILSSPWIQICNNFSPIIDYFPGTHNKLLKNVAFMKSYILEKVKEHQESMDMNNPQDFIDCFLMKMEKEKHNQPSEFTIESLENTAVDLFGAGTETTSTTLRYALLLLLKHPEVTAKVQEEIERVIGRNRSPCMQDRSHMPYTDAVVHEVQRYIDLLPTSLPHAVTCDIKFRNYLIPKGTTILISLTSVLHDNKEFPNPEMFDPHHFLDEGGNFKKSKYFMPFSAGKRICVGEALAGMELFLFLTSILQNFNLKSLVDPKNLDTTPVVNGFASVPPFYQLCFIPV
Experimental: as §1

CYP1A2 = target: T4, CYP1A2 (Homo sapiens, UniProt P05177); assay: CYP inhibition in human liver microsomes; format: in vitro ADME; conditions: probe Phenacetin
T4 construct: with specific CYP probe substrates in human liver microsomes; from tissue; host or cells: human liver microsomes
T4 sequence (P05177 whole entry): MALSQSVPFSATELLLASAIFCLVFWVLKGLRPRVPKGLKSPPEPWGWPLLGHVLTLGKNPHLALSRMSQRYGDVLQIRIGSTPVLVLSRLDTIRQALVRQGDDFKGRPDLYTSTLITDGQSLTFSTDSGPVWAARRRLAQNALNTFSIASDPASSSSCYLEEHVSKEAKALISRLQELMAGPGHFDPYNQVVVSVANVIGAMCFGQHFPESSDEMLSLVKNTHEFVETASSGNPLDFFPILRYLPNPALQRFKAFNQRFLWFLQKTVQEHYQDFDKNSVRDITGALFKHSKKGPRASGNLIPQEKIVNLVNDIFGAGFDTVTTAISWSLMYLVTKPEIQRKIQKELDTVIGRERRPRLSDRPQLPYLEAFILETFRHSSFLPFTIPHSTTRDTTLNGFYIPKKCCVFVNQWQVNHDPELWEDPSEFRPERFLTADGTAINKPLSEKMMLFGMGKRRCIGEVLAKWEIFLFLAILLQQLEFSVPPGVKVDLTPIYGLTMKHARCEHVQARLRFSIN
Experimental: as §1

CYP2C19 = target: T5, CYP2C19 (Homo sapiens, UniProt P33261); assay: CYP inhibition in human liver microsomes; format: in vitro ADME; conditions: probe S-Mephenytoin
T5 construct: with specific CYP probe substrates in human liver microsomes; from tissue; host or cells: human liver microsomes
T5 sequence (P33261 whole entry): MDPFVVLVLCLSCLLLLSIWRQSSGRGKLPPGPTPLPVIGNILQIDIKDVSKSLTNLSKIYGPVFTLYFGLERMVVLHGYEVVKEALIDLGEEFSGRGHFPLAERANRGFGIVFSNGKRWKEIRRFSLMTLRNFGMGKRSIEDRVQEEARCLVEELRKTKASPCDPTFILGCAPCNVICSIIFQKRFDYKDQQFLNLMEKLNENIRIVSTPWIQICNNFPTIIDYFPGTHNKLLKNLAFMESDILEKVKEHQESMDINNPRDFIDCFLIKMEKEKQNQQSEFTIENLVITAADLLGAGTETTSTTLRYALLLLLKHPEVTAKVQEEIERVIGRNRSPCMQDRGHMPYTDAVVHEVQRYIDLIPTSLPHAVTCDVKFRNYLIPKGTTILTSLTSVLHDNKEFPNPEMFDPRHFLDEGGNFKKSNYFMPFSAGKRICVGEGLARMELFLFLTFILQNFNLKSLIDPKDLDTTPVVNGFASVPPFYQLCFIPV
Experimental: as §1

CYP2D6 = target: T6, CYP2D6 (Homo sapiens, UniProt P10635); assay: CYP inhibition in human liver microsomes; format: in vitro ADME; conditions: probe Dextromethorphan
T6 construct: with specific CYP probe substrates in human liver microsomes; from tissue; host or cells: human liver microsomes
T6 sequence (P10635 whole entry): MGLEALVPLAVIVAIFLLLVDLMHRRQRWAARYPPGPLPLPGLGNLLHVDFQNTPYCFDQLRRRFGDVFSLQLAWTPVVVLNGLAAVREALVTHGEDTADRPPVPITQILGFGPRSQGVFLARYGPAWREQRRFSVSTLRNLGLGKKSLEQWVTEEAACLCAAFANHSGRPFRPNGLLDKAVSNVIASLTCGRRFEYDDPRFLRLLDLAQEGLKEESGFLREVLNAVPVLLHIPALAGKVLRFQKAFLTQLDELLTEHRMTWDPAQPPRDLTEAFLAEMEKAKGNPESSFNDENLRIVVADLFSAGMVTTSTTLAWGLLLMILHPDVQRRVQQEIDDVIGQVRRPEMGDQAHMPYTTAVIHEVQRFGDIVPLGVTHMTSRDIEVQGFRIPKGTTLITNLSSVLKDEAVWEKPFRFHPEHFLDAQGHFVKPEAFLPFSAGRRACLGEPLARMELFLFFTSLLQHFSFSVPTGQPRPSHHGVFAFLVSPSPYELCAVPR
Experimental: as §1

CYP2E1 = target: T7, CYP2E1 (Homo sapiens, UniProt P05181); assay: CYP inhibition in human liver microsomes; format: in vitro ADME; conditions: probe Chlorzoxazone
T7 construct: with specific CYP probe substrates in human liver microsomes; from tissue; host or cells: human liver microsomes
T7 sequence (P05181 whole entry): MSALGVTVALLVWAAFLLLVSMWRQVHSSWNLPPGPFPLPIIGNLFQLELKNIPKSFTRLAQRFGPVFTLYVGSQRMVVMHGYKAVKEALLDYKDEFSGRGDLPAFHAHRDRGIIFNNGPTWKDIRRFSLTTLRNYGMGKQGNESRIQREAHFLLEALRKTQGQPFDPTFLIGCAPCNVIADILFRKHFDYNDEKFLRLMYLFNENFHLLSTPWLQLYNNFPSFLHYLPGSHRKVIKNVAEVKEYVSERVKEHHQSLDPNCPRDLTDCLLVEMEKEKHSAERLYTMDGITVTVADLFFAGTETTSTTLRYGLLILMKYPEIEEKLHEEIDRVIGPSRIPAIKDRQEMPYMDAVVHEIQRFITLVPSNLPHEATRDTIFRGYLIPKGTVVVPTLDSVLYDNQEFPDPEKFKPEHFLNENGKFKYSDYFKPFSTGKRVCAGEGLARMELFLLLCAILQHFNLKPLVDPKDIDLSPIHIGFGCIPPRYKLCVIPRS
Experimental: as §1

CYP2C8 = target: T8, CYP2C8 (Homo sapiens, UniProt P10632); assay: CYP inhibition in human liver microsomes; format: in vitro ADME; conditions: probe Amodiaquine
T8 construct: with specific CYP probe substrates in human liver microsomes; from tissue; host or cells: human liver microsomes
T8 sequence (P10632 whole entry): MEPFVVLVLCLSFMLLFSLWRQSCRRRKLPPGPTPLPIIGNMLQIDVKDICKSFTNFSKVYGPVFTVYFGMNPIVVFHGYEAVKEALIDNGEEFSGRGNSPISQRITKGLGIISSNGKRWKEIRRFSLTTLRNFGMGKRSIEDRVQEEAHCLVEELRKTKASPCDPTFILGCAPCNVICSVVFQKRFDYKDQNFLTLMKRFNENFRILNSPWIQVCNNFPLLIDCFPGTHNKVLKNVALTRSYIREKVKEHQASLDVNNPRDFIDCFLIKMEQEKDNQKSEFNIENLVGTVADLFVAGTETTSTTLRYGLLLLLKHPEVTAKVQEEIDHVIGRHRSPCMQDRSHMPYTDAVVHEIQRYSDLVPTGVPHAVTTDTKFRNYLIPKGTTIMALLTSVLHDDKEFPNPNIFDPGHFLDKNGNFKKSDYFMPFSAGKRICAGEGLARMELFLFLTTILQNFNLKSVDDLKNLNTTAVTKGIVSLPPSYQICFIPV
Experimental: as §1

CYP2B6 = target: T9, CYP2B6 (Homo sapiens, UniProt P20813); assay: CYP inhibition in human liver microsomes; format: in vitro ADME; conditions: probe Bupropion
T9 construct: with specific CYP probe substrates in human liver microsomes; from tissue; host or cells: human liver microsomes
T9 sequence (P20813 whole entry): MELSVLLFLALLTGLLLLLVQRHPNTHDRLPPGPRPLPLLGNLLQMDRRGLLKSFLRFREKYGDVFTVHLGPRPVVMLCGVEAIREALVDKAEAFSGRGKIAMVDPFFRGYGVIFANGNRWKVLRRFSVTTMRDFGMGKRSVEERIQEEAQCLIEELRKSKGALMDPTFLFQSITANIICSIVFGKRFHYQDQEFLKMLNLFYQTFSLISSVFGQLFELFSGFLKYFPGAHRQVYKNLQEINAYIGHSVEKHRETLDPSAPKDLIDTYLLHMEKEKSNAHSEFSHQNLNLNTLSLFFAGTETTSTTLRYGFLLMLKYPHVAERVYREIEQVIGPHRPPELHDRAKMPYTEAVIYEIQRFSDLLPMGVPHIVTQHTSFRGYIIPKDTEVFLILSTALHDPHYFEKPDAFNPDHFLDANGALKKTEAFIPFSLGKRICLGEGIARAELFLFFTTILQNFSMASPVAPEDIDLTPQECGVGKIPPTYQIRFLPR
Experimental: as §1

[1] = target: 278 human wild type kinases; assay: Full human wild-type kinase panel (KinaseProfiler); format: biochemical; conditions: 1 micromolar
Experimental: RESULTS AND DISCUSSION—Selectivity—The compound of Formula (III) was evaluated in three selectivity panels to assess the potential for off-target pharmacology (Table 8). […] The kinase off-target profile of The compound of Formula (III) was assessed in a full human wild-type panel using radiometric kinase activity assays (KinaseProfiler™ and IC50Profiler™; Eurofins Scientific) (Table 9; FIG. 23). The compound of Formula (III) inhibited 4/278 kinases >50% at 1 micromolar, identifying BTK and the three other kinases having analogous Cys residues with the potential for covalent inhibition (BMX, TEC, BLK). […]. The cellular kinase selectivity of The compound of Formula (III) was established in native Ramos B cell kinome assays (KiNativ™; ActivX) confirmed BTK as the primary target with inhibition of BLK and TEC inhibition detected (Table 10).

human IL-10 = assay: Circulating human IL-10 in serum of NSG mice with OCI-LY10 tumors; format: in vivo
Excerpt: FIG. 18 depicts circulating human IL-10 cytokine serum levels of mice treated with the compound of Formula (III). IL-10 cytokine levels are graphed as % normalized to vehicle control IL-10 levels ±SEM. Female NSG mice were implanted SC with OCI-LY10 cells on the right flank on Day 0. After tumors were established 39 days post implantation, mice were randomized into experimental groups and dosed orally with a single dose (n=5/dose level/time point). Serum samples were collected 2, 4, 8, 12, 16 and 24 hours after compound administration.
In Vivo Efficacy in ABC-DLBCL Xenograft and PDX Mouse Models of Lymphoma-To evaluate the effect of the compound of Formula (III) on NFκB signaling in vivo, we analyzed circulating human IL-10 levels in serum of NSG mice implanted with OCI-LY10 DLBCL tumors treated with 0, 1, 3, 10, 30 and 100 mg/kg compound of Formula (III) at 2, 4, 8, 12, 16 and 24 hours after single dose administration. Human IL-10 levels dropped to around 50% of vehicle control 2 hours after dosing, lowering even further after 4 hours to below 20%, 10% and 5% of vehicle control IL-10 levels in 10 mg/kg, 30 mg/kg and 100 mg/kg compound of Formula (III) treatment groups, respectively, and remaining low up to 12 hours. Some rebound to 23% of vehicle control levels for 30 mg/kg and 100 mg/kg and to 39% for the 10 mg/kg dosing group are observed 16 hours after compound administration, while IL-10 levels normalize after 24 hours (FIG. 18).

[2] = Protein binding in RPMI culture media containing 10% FBS; format: in vitro ADME; conditions: bovine, read-out: % free in RPMI culture media containing 10% FBS

T1 sequence (P11509 whole entry): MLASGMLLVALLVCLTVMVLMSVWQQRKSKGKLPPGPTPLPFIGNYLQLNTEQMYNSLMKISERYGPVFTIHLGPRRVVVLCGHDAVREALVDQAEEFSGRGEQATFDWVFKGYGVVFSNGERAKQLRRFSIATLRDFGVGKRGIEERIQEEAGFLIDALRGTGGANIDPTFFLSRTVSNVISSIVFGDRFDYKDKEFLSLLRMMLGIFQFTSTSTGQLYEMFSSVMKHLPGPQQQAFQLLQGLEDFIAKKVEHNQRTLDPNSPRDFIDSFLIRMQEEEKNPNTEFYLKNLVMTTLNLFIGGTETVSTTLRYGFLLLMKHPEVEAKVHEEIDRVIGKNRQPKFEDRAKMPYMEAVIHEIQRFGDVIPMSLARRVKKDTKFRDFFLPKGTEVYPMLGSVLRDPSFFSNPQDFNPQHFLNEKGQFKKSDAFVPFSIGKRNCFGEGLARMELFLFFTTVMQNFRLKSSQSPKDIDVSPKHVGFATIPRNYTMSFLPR

SMILES: C=CC(=O)N[C@H]1CCC[C@H]1NC(=O)c1sc2nccc3c2c1NC(=O)N3c1cnc(CC(C)C)cc1C (atropisomer, axis not shown) [compound of Formula (III), N-((1R,2S)-2-Acrylamidocyclopentyl)-5-(S)-(6-isobutyl-4-methylpyridin-3-yl)-4-oxo-4,5-dihydro-3H-1-thia-3,5,8-triazaacenaphthylene-2-carboxamide]
- IC50 (CYP2A6): > 50 µM
- IC50 (CYP3A4; probe Midazolam): 25 µM
- IC50 (CYP3A4; probe Nifedipine): > 50 µM
- IC50 (CYP3A4; probe Testosterone): 40 µM
- IC50 (CYP2C9; probe Diclofenac): 3 µM
- IC50 (CYP2C9; probe Tolbutamide): 5.3 µM
- IC50 (CYP1A2): > 50 µM
- IC50 (CYP2C19): > 50 µM
- IC50 (CYP2D6): 26 µM
- IC50 (CYP2E1): > 50 µM
- IC50 (CYP2C8): 16 µM
- IC50 (CYP2B6): > 50 µM
- kinases inhibited >50% [1]: 4/278
- human IL-10, % of vehicle control (human IL-10; 10 mg/kg, 4 hours): below 20%
- human IL-10, % of vehicle control (human IL-10; 10 mg/kg, 16 hours): 39%
- human IL-10, % of vehicle control (human IL-10; 30 mg/kg, 4 hours): < 10%
- human IL-10, % of vehicle control (human IL-10; 30 mg/kg, 16 hours): 23%
- human IL-10, % of vehicle control (human IL-10; 100 mg/kg, 4 hours): < 5%
- human IL-10, % of vehicle control (human IL-10; 100 mg/kg, 16 hours): 23%
- human IL-10, % of vehicle control (human IL-10; 2 hours after single oral dose): around 50%
- fraction unbound at 1 μM [2]: 0.317
